In patent publication US20260042764A1, “COMPOSITIONS AND METHODS FOR INHIBITION OF KRAS” (TheRas, Inc., priority 2022, published 2026):

Experiments:
[1] = test system: AsPC-1 cells (KRAS G12D); assay: Cell-based pERK HTRF assay in AsPC-1 cells (Biological Example 5)
Procedure, shortened: (§1)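 A two-hour compound treatment (0.25% DMSO) of cells seeded the previous day preceded lysis and HTRF phospho-ERK1/2 detection. EC50 values were fitted by variable-slope four-parameter regression.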

[2] = test system: SW1900 cells (KRAS G12D); assay: Cell-based pERK HTRF assay in SW1900 cells (Biological Example 5)
Procedure, shortened: as §1

[3] = test system: HPAC cells (KRAS G12D); assay: Cell-based pERK HTRF assay in HPAC cells (Biological Example 5)
Procedure, shortened: as §1

[4] = test system: Capan-2 cells (KRAS G12V); assay: Cell-based pERK HTRF assay in Capan-2 cells (Biological Example 5)
Method: (§2) Biological Example 5: Cell-based PERK HTRF assay in AsPC-1, SW1900, HPAC, Capan-2, RKN, H358, HCT116, KP-2, H1573, A549, MKN1, and HT1080 cells
(§3) The inhibition of ERK phosphorylation, as measured using the HTRF Advanced Phospho-ERK 1/2 (Thr202/Tyr204) Detection Assay kit (Perkin Elmer), was used to determine the effectiveness of test compounds in disrupting KRAS-driven protein/effector signaling in cells.
(§4) On day 1, cells were seeded into 96-well plates at 2.5×10^4 cells/well in 100 μL of complete growth media supplemented with 10% fetal bovine serum (FBS) and incubated at 37° C., in the presence of 5% CO2.
(§5) On day 2, cells were treated with compounds diluted in DMSO at 0.25% final DMSO concentration. Compounds were dosed in a 9-point concentration curve with three-fold dilution between concentrations. Cells were incubated in the presence of compound for two hours at 37° C. Following this treatment period, cells were harvested by aspirating the media, adding 40 μL of kit-supplied 1x lysis buffer per well, and shaking for 30 minutes at 250 rpm at room temperature.
(§6) Following cell lysis, samples were homogenized by pipetting up and down twenty times and 16 μL of cell lysate per well was transferred from the 96-well cell culture plate to two wells of a 384-well detection plate. A complete detection buffer was prepared by diluting D2 and Eu Cryptate antibodies 1:20 in kit-provided detection solution, 4 μL of complete detection buffer was then added to each well with lysate. Plates were incubated with gentle rocking for 24 hours at 4° C.
(§7) Following this incubation period, plates were centrifuged at 500×g for one minute and analyzed on a CLARIOstar plate reader. Data was imported into Microsoft Excel and the signal from the 665 nm channel was divided by the signal from the 620 nm channel. % pERK was calculated as: […]
(§8) Data was imported to the Prism software package (Graphpad) and EC50 values were calculated using the log (inhibitor) vs, response—variable slopc (Four parameters) model.

[5] = test system: H358 cells (KRAS G12C); assay: Cell-based pERK HTRF assay in H358 cells (Biological Example 5)
Procedure, shortened: as §1

[6] = test system: MKN1 cells (KRAS amplification); assay: Cell-based pERK HTRF assay in MKN1 cells (Biological Example 5)
Method: as §2, §3, §4, §5, §6, §7, §8

[7] = test system: HT1080 cells (NRAS); assay: Cell-based pERK HTRF assay in HT1080 cells (Biological Example 5)
Procedure, shortened: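 Overnight-plated cells (2.5×10^4/well, 10% FBS); 2 h compound, 9-pt 3-fold curve, 0.25% DMSO, 37° C; lysis 30 min RT; Eu cryptate/D2 anti-pERK (T202/Y204) detection 24 h, 4° C; 665/620 ratio → % pERK → 4-PL EC50.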

[8] = test system: AsPC-1 cells (KRAS G12D); assay: 3D Cell viability assay in AsPC-1 cells (Biological Example 6); type: cell-based; conditions: Homo sapiens, ASPC1; AsPC-1 (KRAS G12D) spheroids, 72 hours
Method: (§9) Biological Example 6: 3D Cell viability assay in AsPC-1, SW1900, HPAC, Capan-2, RKN, H358, HCT116, KP-2, H1573, A549, MKN1, and HT1080 cells
(§10) The inhibition of cellular viability as a result of test compound treatment in a spheroid assay was measured using the CellTiter-Glow 3D Cell Viability Assay (Promega).
(§11) On Day 1, 1000 cells per well were seeded in 150 μL of complete growth media supplemented with 10% fetal bovine serum (FBS) and incubated at 37° C., in the presence of 5% CO2 in 96-well ultra-low attachment microplates (Corning) for 48 hours undisturbed to allow spheroids to form.
(§12) Following spheroid formation, cells were treated with compounds diluted in DMSO at 0.25% final DMSO concentration. Compounds were dosed in a 9-point concentration curve with three-fold dilution between concentrations. Cells were incubated in the presence of compound for 72 hours at 37° C., in the presence of 5% CO2.
(§13) Following this incubation period, the kit-provided CTG reagent was allowed to equilibrate for 30 minutes at room temperature, 150 μL of equilibrated CTG reagent was added to each well, and the plate was sealed before shaking at 250 rpm for 10 minutes at room temperature to lyse the cells, 150 μL of lysate per well was transferred to a 96-well plate and luminescence was read on a CLARIOstar plate reader.
(§14) Data was imported into the Prism software package (Graphpad) and EC50 values were calculated using the log (inhibitor) vs, response—variable slope (Four parameters) model.

[9] = test system: SW1900 cells (KRAS G12D); assay: 3D Cell viability assay in SW1900 cells (Biological Example 6); type: cell-based; conditions: Homo sapiens; SW1990 (text: SW1900, KRAS G12D) spheroids, 72 hours
Procedure, shortened: (§15)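 First, 1000 cells per well are seeded in complete medium with 10% FBS and left undisturbed 48 h to form spheroids. Next, compounds are added as a 9-point, three-fold series (0.25% DMSO) for 72 h at 37 °C. Finally, CellTiter-Glo 3D lysis and luminescence yield EC50 values.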

[10] = test system: HPAC cells (KRAS G12D); assay: 3D Cell viability assay in HPAC cells (Biological Example 6); type: cell-based; conditions: Homo sapiens, HPAC, 72 h, HPAC (KRAS G12D) spheroids
Procedure, shortened: as §15

[11] = test system: Capan-2 cells (KRAS G12V); assay: 3D Cell viability assay in Capan-2 cells (Biological Example 6); type: cell-based; conditions: Homo sapiens; Capan-2 (KRAS G12V) spheroids, 72 hours
Procedure, shortened: as §15

[12] = test system: H358 cells (KRAS G12C); assay: 3D Cell viability assay in H358 cells (Biological Example 6); type: cell-based; conditions: Homo sapiens, NCI-H358; H358 (KRAS G12C) spheroids, 72 hours
Procedure, shortened: as §15

[13] = test system: MKN1 cells (KRAS amplification); assay: 3D Cell viability assay in MKN1 cells (Biological Example 6); type: cell-based; conditions: Homo sapiens, MKN-1; MKN (MKN1, KRAS amplification) spheroids, 72 hours
Method: as §9, §10, §11, §12, §13, §14

[14] = test system: HT1080 cells (NRAS); assay: 3D Cell viability assay in HT1080 cells (Biological Example 6); type: cell-based; conditions: Homo sapiens, HT-1080; HT1080 (NRAS) spheroids, 72 hours
Procedure, shortened: as §15

[15] = test system: RKN cells (KRAS G12V); assay: Cell-based pERK HTRF assay in RKN cells (Biological Example 5)
Procedure, shortened: as §1

[16] = test system: RKN cells (KRAS G12V); assay: 3D Cell viability assay in RKN cells (Biological Example 6); type: cell-based; conditions: RKN (KRAS G12V) spheroids, 72 hours
Procedure, shortened: as §15

[17] = Homo sapiens, ASPC1, AsPC-1 (KRAS G12D) cells
[18] = Homo sapiens, SW1990, SW1990 cells (text: SW1900, KRAS G12D)
[19] = Homo sapiens, Capan-2, Capan-2 (KRAS G12V) cells
[20] = Homo sapiens, NCI-H358, H358 (KRAS G12C) cells
[21] = Homo sapiens, MKN-1, MKN cells (MKN1, KRAS amplification)

Compound | IC50 [1, 17] [nM] | IC50 [2, 18] [nM] | IC50 ([3]; Homo sapiens, HPAC) [nM] | IC50 [4, 19] [nM] | IC50 [5, 20] [nM] | IC50 [6, 21] [nM] | IC50 ([7]; Homo sapiens, HT-1080) [nM] | IC50 [8] [nM] | IC50 [9] [nM] | IC50 [10] [nM] | IC50 [11] [nM] | IC50 [12] [nM] | IC50 [13] [nM] | IC50 [14] [nM] | other results
CCN(c1nc(OC[C@@]23CCCN2C[C@H](F)C3)nc2c(F)c(-c3ccc(F)c4sc(N)c(C#N)c34)c(C(F)(F)F)cc12)[C@H]1CCN(C(=O)C(C)C)C1 (atropisomer, axis not shown) [Compound 468] |  |  |  |  |  |  |  |  |  |  |  |  |  |  | IC50 ([1]; AsPC-1 (KRAS G12D) cells): > 1000 nM; IC50 ([2]; SW1990 cells (text: SW1900, KRAS G12D)): > 1000 nM; IC50 [3]: > 1000 nM; IC50 ([4]; Capan-2 (KRAS G12V) cells): > 1000 nM; IC50 ([5]; H358 (KRAS G12C) cells): > 1000 nM; IC50 ([6]; MKN cells (MKN1, KRAS amplification)): > 1000 nM; IC50 [7]: > 1000 nM
CCN(c1nc(OC[C@@]23CCCN2C[C@H](F)C3)nc2c(F)c(-c3ccc(F)c4sc(N)c(C#N)c34)c(C(F)(F)F)cc12)[C@H]1CCS(=O)(=O)C1 (atropisomer, axis not shown) [Compound 492] | ≤ 100 | ≤ 100 | ≤ 100 | ≤ 100 | ≤ 100 | ≤ 100 | > 1000 | ≤ 100 | ≤ 100 | ≤ 100 | ≤ 100 | ≤ 100 | ≤ 100 | > 1000 | 
CCN(c1nc(OC[C@@]23CCCN2C[C@H](F)C3)nc2c(F)c(-c3ccc(F)c4sc(N)c(C#N)c34)c(C(F)(F)F)cc12)[C@H]1C[C@@H]2COC(=O)N2C1 (atropisomer, axis not shown) [Compound 519] | ≤ 100 | ≤ 100 | 100 to 1000 | ≤ 100 | ≤ 100 | ≤ 100 |  | ≤ 100 | ≤ 100 | 100 to 1000 | ≤ 100 | ≤ 100 | ≤ 100 |  | IC50 [15]: ≤ 100 nM; IC50 [16]: ≤ 100 nM
CCN(c1nc(OC[C@@]23CCCN2C[C@H](F)C3)nc2c(F)c(-c3ccc(F)c4sc(N)c(C#N)c34)c(C(F)(F)F)cc12)[C@H]1C[C@H]2COC(=O)N2C1 (atropisomer, axis not shown; (aS)) [Compound 518, 2-amino-4-((S)-4-(ethyl((6S,7aS)-3-oxotetrahydro-1H,3H-pyrrolo[1,2-c]oxazol-6-yl)amino)-8-fluoro-2-(((2R,7aS)-2-fluorotetrahydro-1H-pyrrolizin-7a(5H)-yl)methoxy)-6-(trifluoromethyl)quinazolin-7-yl)-7-fluorobenzo[b]thiophene-3-carbonitrile] | ≤ 100 | ≤ 100 | 100 to 1000 | ≤ 100 | ≤ 100 | ≤ 100 |  | ≤ 100 | ≤ 100 | ≤ 100 | ≤ 100 | ≤ 100 | ≤ 100 |  | IC50 [15]: ≤ 100 nM; IC50 [16]: ≤ 100 nM
CCOC(=O)N1CC[C@H](N(CC)c2nc(OC[C@@]34CCCN3C[C@H](F)C4)nc3c(F)c(-c4ccc(F)c5sc(N)c(C#N)c45)c(C(F)(F)F)cc23)C1 [Compound 467] | 100 to 1000 | ≤ 100 | 100 to 1000 | ≤ 100 | ≤ 100 | ≤ 100 | > 1000 | ≤ 100 | ≤ 100 | > 1000 | ≤ 100 | ≤ 100 | ≤ 100 | > 1000 | 
CCN(c1nc(OC[C@@]23CCCN2C[C@H](F)C3)nc2c(F)c(-c3ccc(F)c4sc(N)c(C#N)c34)c(C(F)(F)F)cc12)[C@H]1C[C@H](C)N(C(=O)C2CC2)C1 [Compound 470] | ≤ 100 | ≤ 100 | 100 to 1000 | ≤ 100 | ≤ 100 | ≤ 100 | > 1000 | ≤ 100 | ≤ 100 | > 1000 | ≤ 100 | ≤ 100 | ≤ 100 | > 1000 | 
Cc1cc2n(n1)CCN(c1nc(OCC34CCCN3CC(F)C4)nc3c(F)c(-c4ccc(F)c5sc(N)c(C#N)c45)c(C(F)(F)F)cc13)C2 (stereo not drawn) [Compound 484] | ≤ 100 | ≤ 100 | 100 to 1000 | ≤ 100 | ≤ 100 | ≤ 100 | > 1000 | ≤ 100 | ≤ 100 | 100 to 1000 | ≤ 100 | ≤ 100 | 100 to 1000 | > 1000 | 
N#Cc1c(N)sc2c(F)ccc(-c3c(C(F)(F)F)cc4c(N5CCn6nc(N7CCOCC7)cc6C5)nc(OC[C@@]56CCCN5C[C@H](F)C6)nc4c3F)c12 [Compound 485] | 100 to 1000 | ≤ 100 | 100 to 1000 | ≤ 100 | ≤ 100 | ≤ 100 | > 1000 | ≤ 100 | ≤ 100 | 100 to 1000 | ≤ 100 | ≤ 100 | 100 to 1000 | > 1000 | 
